Key:
Format in all cases: biochemical
[1] = biological target: T1, BACINT_01033-CE1 (Bi1033-CE1) (Bacteroides intestinalis, UniProt B3C969); experiment: ferulic acid release, HPLC-DAD; settings: 200 uM substrate, 50 nM enzyme, 50 mM sodium citrate, 150 mM NaCl, pH 6.5, 37 °C, 10 min
T1 construct: dimer; N-terminal Ig-like domain, esterase domain residues 126-383

[2] = biological target: T2, BACINT_01038-CE6/CE1 (Bi1038-CE6/CE1) (Bacteroides intestinalis, UniProt B3C974); experiment: ferulic acid release, HPLC-DAD; settings: […] substrate, […] enzyme, […] sodium citrate, […] NaCl, pH […] °C, […] min
T2 construct: two modules (CE6, CE1)

[3] = biological target: T3, BACINT_01042-GH3 (Bi1042-GH3) (Bacteroides intestinalis, UniProt B3C978); experiment: xylose release, HPAEC-PAD; settings: pH […] °C, […] h, […] enzyme
T3 sequence (B3C978 19-862): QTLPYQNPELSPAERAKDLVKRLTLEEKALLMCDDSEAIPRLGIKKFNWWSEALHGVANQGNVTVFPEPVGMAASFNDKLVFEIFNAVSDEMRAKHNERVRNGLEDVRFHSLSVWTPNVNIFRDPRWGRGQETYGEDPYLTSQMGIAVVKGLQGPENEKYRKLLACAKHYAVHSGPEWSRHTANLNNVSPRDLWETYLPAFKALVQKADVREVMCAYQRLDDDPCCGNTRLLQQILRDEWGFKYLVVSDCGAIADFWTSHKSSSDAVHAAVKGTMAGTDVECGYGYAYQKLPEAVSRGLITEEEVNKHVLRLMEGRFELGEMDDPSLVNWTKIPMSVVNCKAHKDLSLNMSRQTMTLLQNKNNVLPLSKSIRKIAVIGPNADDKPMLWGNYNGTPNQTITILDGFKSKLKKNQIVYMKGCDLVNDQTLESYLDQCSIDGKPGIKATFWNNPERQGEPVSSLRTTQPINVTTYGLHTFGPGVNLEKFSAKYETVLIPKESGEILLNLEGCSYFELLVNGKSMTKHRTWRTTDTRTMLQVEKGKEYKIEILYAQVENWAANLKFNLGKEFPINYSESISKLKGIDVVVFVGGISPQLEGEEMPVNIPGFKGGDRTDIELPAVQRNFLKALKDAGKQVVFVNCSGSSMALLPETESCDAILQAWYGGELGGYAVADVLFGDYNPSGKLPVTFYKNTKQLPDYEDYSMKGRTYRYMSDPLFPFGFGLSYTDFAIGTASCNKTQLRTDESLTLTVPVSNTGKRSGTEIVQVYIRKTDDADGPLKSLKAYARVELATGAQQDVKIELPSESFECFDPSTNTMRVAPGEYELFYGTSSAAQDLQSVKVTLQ

[4] = biological target: T4, BACINT_01039-CE1 (Bi1039-CE1) (Bacteroides intestinalis, UniProt B3C975); experiment: pNP release at […] nm; settings: 1 mM substrate, 50 nM enzyme, 0.1 M MOPS pH 7.5, 37 °C
T4 construct: dimer; crystal structure residues 25-382, esterase domain 126-382

[5] = biological target: T2, BACINT_01038-CE6/CE1 (Bi1038-CE6/CE1); experiment: pNP release at […] nm; settings: […] substrate, […] enzyme, […] MOPS pH […] °C

T2 sequence (B3C974 59-680): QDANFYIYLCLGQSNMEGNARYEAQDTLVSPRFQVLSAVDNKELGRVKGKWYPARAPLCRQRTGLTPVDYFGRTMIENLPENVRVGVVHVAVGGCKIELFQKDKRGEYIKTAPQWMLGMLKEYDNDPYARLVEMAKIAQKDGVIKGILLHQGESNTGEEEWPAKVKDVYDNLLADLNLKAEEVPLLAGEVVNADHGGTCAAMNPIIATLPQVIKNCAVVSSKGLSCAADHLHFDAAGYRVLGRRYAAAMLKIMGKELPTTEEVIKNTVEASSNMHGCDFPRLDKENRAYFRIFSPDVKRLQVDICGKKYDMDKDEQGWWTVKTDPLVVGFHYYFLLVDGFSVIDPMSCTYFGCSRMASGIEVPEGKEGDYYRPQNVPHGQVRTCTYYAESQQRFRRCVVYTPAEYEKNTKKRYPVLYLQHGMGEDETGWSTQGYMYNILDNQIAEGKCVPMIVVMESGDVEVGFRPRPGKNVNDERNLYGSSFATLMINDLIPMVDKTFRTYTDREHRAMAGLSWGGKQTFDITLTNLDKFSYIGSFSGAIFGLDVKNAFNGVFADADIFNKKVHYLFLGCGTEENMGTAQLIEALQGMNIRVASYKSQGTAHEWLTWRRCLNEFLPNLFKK
T4 sequence (B3C975 25-382): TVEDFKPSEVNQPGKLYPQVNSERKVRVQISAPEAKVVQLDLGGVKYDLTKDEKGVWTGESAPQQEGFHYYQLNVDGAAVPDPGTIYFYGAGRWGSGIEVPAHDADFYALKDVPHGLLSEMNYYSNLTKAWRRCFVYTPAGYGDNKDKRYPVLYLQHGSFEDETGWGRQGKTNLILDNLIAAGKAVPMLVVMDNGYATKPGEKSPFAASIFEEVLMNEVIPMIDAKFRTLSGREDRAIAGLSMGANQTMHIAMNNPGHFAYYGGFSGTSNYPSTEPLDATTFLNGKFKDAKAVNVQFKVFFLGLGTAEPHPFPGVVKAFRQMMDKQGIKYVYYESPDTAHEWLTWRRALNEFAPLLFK
T1 sequence (B3C969 24-387): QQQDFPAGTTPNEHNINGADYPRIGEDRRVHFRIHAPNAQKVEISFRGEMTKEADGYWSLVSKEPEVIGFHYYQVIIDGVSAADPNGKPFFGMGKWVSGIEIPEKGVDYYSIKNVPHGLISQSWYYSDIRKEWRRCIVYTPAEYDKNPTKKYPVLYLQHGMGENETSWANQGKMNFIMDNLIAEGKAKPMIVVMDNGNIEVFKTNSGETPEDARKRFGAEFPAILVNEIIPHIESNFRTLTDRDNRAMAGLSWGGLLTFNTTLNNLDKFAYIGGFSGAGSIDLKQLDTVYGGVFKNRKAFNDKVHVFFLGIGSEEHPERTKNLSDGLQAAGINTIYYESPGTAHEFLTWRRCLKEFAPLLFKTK

COc1cc(/C=C/C(=O)OC[C@@H]2OC(O)[C@H](O)[C@H]2O)ccc1O (stereo partly drawn) [FA, feruloylated monosaccharide (FA)]
ferulic acid release, HPLC-DAD [1]: exhibits low ferulic acid cleavage activity on feruloylated monosaccharide (FA)

COc1cc(/C=C/C(=O)OC[C@@H]2O[C@@H](O[C@@H]3[C@@H](O)[C@H](O[C@@H]4COC(O)[C@H](O)[C@H]4O)OC[C@H]3O)[C@H](O)[C@H]2O)ccc1O (stereo partly drawn) [FAXX, feruloylated trisaccharide (FAXX)]
ferulic acid release, HPLC-DAD [2]: showed some activity on both FA and FAXX

OC1OC[C@@H](O[C@@H]2OC[C@@H](O)[C@H](O)[C@H]2O)[C@H](O)[C@H]1O (stereo partly drawn) [X2, xylobiose]
xylose release, HPAEC-PAD [3]: Bi1042-GH3 cleaves xylo-oligosaccharides to xylose or X1

OC1OC[C@@H](O[C@@H]2OC[C@@H](O[C@@H]3OC[C@@H](O)[C@H](O)[C@H]3O)[C@H](O)[C@H]2O)[C@H](O)[C@H]1O (stereo partly drawn) [X3, xylotriose]
xylose release, HPAEC-PAD [3]: Bi1042-GH3 cleaves xylo-oligosaccharides to xylose or X1

CC(=O)Oc1ccc([N+](=O)[O-])cc1 [pNP acetate]
pNP release at 400 nm [4]: activity of the wild-type Bi1039-CE1, observed with pNP acetate as the substrate | pNP release at 400 nm [5]: activities on the synthetic substrates were from Bi1040-FAE and Bi1038-CE6/CE1, respectively

Reference: PMC7815789, “Degradation of complex arabinoxylans by human colonic Bacteroidetes” (Nature Communications, 2021)
